Results: ChEMBL document CHEMBL3997849, “Modulation of the Inhibitors of Apoptosis Proteins (IAPs) Activities for Cancer Treatment” (ACS Med Chem Lett, 2017)

Experiments:
[1] = molecular target: E3 ubiquitin-protein ligase XIAP (Homo sapiens, UniProt P98170); assay: Inhibition of His-tagged XIAP BIR3 (241 to 356 residues) (unknown origin) using fluorescein labeled SMAC peptide as substrate after 60 mins by HTRF assay
[2] = Inhibition of His-tagged XIAP BIR2-3 (125 to 356 residues) C202A/C213G double mutant (unknown origin) using fluorescein labeled SMAC peptide as substrate after 60 mins by HTRF assay; parameters: species or system Homo sapiens

E3 ubiquitin-protein ligase XIAP, sequence (P98170 whole entry, the tested form may be a part): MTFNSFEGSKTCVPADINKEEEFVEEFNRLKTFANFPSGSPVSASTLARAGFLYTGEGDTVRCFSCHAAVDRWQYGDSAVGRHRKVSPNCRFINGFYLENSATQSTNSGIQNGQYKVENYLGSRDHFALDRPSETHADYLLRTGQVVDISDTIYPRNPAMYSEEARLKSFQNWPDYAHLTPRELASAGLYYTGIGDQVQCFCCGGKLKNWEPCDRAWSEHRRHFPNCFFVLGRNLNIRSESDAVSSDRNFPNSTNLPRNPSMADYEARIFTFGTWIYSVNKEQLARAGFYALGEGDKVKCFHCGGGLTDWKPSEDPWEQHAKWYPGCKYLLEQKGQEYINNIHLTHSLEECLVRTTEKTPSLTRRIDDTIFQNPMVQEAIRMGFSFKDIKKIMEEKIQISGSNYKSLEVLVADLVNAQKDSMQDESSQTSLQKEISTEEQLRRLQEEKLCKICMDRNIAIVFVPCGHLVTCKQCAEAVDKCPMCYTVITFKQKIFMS

| SMILES | IC50 [1] [nM] | IC50 [2] [nM] |
| --- | --- | --- |
| CN[C@@H](C)C(=O)N[C@H](C(=O)N1C[C@@H](c2ccc(CC(NC(=O)[C@@H](NC(=O)[C@H](C)NC)C(C)(C)SCC(=O)NC(CO)CO)C(=O)N[C@@H]3CCCc4ccccc43)cc2)C[C@H]1C(=O)N[C@@H]1CCCc2ccccc21)C(C)(C)C (stereo partly specified) | 1.4 | 8.1 |
| CN[C@@H](C)C(=O)N[C@H](C(=O)N1C[C@@H](c2ccc(C[C@H](NC(=O)[C@@H](NC(=O)[C@H](C)NC)C(C)(C)SCC(=O)N(C)C[C@@H](O)CO)C(=O)N[C@@H]3CCCc4ccccc43)cc2)C[C@H]1C(=O)N[C@@H]1CCCc2ccccc21)C(C)(C)C |  | 12.3 |
| CN[C@@H](C)C(=O)N[C@H](C(=O)N[C@@H](Cc1ccc([C@H]2C[C@@H](C(=O)N[C@@H]3CCCc4ccccc43)N(C(=O)[C@@H](NC(=O)[C@H](C)NC)C(C)(C)C)C2)cc1)C(=O)N[C@@H]1CCCc2ccccc21)C(C)(C)C |  | 6.8 |
| CN[C@@H](C)C(=O)N[C@H](C(=O)NC(Cc1ccc(NC(=O)c2ccc(C(=O)NC3C[C@@H](C(=O)N[C@@H]4CCCc5ccccc54)N(C(=O)[C@@H](NC(=O)[C@H](C)NC)C(C)(C)C)C3)cc2)cc1)C(=O)N[C@@H]1CCCc2ccccc21)C(C)(C)C (stereo partly specified) | 119 | 9.5 |
